Experiment [1] deals with T1, rat FAAH (Rattus norvegicus, UniProt P97612).
T1 construct: expressed in transfected cells
T1 sequence (P97612 1-579): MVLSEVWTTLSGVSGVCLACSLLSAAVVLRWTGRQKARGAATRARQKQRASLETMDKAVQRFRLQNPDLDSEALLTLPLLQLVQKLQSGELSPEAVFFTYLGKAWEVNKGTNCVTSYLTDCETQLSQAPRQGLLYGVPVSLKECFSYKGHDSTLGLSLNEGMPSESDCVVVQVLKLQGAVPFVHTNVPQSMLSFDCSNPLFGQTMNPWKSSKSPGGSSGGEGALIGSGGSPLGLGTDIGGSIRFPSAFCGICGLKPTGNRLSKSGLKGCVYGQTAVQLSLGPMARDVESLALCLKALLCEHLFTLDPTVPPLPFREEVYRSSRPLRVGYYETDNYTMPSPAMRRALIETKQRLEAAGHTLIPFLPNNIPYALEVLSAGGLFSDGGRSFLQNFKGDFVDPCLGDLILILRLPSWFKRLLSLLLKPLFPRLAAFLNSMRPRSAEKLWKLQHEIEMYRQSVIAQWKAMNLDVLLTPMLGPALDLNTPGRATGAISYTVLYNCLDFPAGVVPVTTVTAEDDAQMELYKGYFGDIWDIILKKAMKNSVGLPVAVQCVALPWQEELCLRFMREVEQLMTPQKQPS
Nature of the experiment: Assay Method 2: FAAH assay, hydrolysis of 3H-anandamide by homogenate of SK-N-MC cells transfected with rat FAAH. The class given is biochemical. The following applies: T84 or transfected SK-N-MC cell homogenate, 3H-AEA tracer 80 nM, rt 1 h, pH 9. The method, boiled down:
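SK-N-MC cells stably transfected with rat FAAH cDNA (electroporation, G418 selection); homogenate hydrolyses 3H-anandamide. Reaction 1 h at rt, then filtered through activated charcoal; unbound labelled ethanolamine in filtrate counted by scintillation.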

Experiment [2] addresses T2, human FAAH (Homo sapiens, UniProt O00519).
T2 construct: expressed in transfected cells
T2 sequence (O00519 1-579): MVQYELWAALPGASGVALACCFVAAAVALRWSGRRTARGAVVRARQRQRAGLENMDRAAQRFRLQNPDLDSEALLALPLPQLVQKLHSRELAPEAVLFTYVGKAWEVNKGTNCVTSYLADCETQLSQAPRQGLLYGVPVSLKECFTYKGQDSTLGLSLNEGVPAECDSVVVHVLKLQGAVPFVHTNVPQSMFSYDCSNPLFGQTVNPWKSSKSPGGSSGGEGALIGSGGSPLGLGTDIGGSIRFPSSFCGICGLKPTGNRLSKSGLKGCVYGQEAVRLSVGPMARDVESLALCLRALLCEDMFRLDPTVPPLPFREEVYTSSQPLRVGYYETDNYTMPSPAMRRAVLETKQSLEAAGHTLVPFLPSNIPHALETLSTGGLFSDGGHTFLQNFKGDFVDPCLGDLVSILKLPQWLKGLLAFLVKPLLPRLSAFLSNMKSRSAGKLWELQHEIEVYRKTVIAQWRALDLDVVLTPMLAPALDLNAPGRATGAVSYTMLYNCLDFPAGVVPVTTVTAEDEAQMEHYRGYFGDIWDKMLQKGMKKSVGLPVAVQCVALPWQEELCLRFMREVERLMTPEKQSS
Nature of the experiment: Assay Method 1: FAAH assay, hydrolysis of 3H-anandamide by homogenate of SK-N-MC cells transfected with human FAAH. Type of experiment: biochemical. Summed up: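 Homogenate of SK-N-MC cells stably expressing human FAAH (G418-selected clones) incubated with compound and 80 nM [1-3H-ethanolamine]anandamide for 1 h at rt. Released 3H-ethanolamine separated from substrate by activated-charcoal filtration, then counted by scintillation.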

The mark [3] stands for this setting: human FAAH, T84 or transfected SK-N-MC cell homogenate, 3H-AEA tracer 80 nM, rt 1 h, pH 9, read-out: Assay 1 IC50.

Structures can show the parent of a compound that is named as a salt. Where two headings read alike, the source gives them in different places.

Turning to `O=C(CCCC1CCN(Cc2cccc(OC3CCCCC3)c2)CC1)c1ncco1` [Example 136, 4-[1-(3-Cyclohexyloxy-benzyl)-piperidin-4-yl]-1-oxazol-2-yl-butan-1-one], the IC50 in experiment [1] is 2 nM; in experiment [2] (setting [3]), 1 nM.

`O=C(CCCC1CCN(Cc2cccc(Br)n2)CC1)c1ncco1` [Example 77, 4-[1-(6-Bromo-pyridin-2-ylmethyl)-piperidin-4-yl]-1-oxazol-2-yl-butan-1-one]: the values for the IC50 in experiment [1] and in experiment [2] (setting [3]) were 1000 nM and 313 nM, respectively.

As to `Cc1ccc(S(=O)(=O)N2CCC(CCCC(=O)c3ncco3)CC2)cc1` [Example 52, 1-Oxazol-2-yl-4-[1-(toluene-4-sulfonyl)-piperidin-4-yl]-butan-1-one], the IC50 is 13 nM in experiment [1] and 1040 nM in experiment [2] (setting [3]).

On to `O=C(CCCC1CCN(C(=O)CCc2cccnc2)CC1)c1ncco1` [Example 47, 1-Oxazol-2-yl-4-[1-(3-pyridin-3-yl-propionyl)-piperidin-4-yl]-butan-1-one], for which the 50% inhibitory concentration (IC50) worked out at 700 nM in experiment [1] and 400 nM in experiment [2] (setting [3]).

As to `O=C(CCCC1CCN(C(=O)COc2ccccc2)CC1)c1ncco1` [Example 33, 1-Oxazol-2-yl-4-[1-(2-phenoxy-acetyl)-piperidin-4-yl]-butan-1-one], the values for the IC50 in experiment [1] and in experiment [2] (setting [3]) were 889 nM and 848 nM, respectively.

Turning to `O=C(CCCC1CCN(Cc2ccc(Br)nc2)CC1)c1ncco1` [Example 76, 4-[1-(6-Bromo-pyridin-3-ylmethyl)-piperidin-4-yl]-1-oxazol-2-yl-butan-1-one], the results for the half-inhibitory concentration (IC50) in experiment [1] and in experiment [2] (setting [3]) were 650 nM and 400 nM, respectively.

Turning to `CC(C)c1ccc(CN2CCC(CCCC(=O)c3ncc(C(=O)O)o3)CC2)cc1` [Example 144, 2-{4-[1-(4-Isopropyl-benzyl)-piperidin-4-yl]-butyryl}-oxazole-5-carboxylic acid trifluoroacetic acid salt], the IC50 in experiment [1] was found to be 17 nM; in experiment [2] (setting [3]), 75 nM.

Turning to `O=C(CCCC1CCN(Cc2ccc(OC3CCCCC3)cc2)CC1)c1ncco1` [Example 134, 4-[1-(4-Cyclohexyloxy-benzyl)-piperidin-4-yl]-1-oxazol-2-yl-butan-1-one], the concentration for half-maximal inhibition (IC50) in experiment [1] and in experiment [2] (setting [3]) was 119 nM throughout.

Consider `O=C(CCCC1CCN(Cc2ccc(F)cc2F)CC1)c1ncco1` [Example 114, 4-[1-(2,4-Difluoro-benzyl)-piperidin-4-yl]-1-oxazol-2-yl-butan-1-one], for which the half-inhibitory concentration (IC50) in experiment [1] was determined as 325 nM; in experiment [2] (setting [3]) it was 110 nM.

On to `O=C(O)c1cnc(C(=O)CCCC2CCN(Cc3cccc(Oc4ccccc4)c3)CC2)o1` [Example 145, 2-{4-[1-(3-Phenoxy-benzyl)-piperidin-4-yl]-butyryl}-oxazole-5-carboxylic acid trifluoroacetic acid salt], for which the 50% inhibitory concentration (IC50) in experiment [1] was 3 nM; in experiment [2] (setting [3]) it was 6 nM.

`O=C(CCCC1CCN(Cc2cc3ccccc3nc2Cl)CC1)c1ncco1` [Example 97, 4-[1-(2-Chloro-quinolin-3-ylmethyl)-piperidin-4-yl]-1-oxazol-2-yl-butan-1-one]: the half-maximal inhibitory concentration (IC50) was determined as 23 nM in experiment [1] and 12 nM in experiment [2] (setting [3]).

Regarding `CC(C)Oc1cccc(CN2CCC(CCCC(=O)c3ncco3)CC2)c1` [Example 135, 4-[1-(3-Isopropoxy-benzyl)-piperidin-4-yl]-1-oxazol-2-yl-butan-1-one], the IC50 in experiment [1] stood at 9 nM; in experiment [2] (setting [3]) it was 5 nM.

For the molecule `O=C(CCCC1CCN(Cc2ccc(N3CCOCC3)nc2)CC1)c1ncco1` [Example 107, 4-[1-(6-Morpholin-4-yl-pyridin-3-ylmethyl)-piperidin-4-yl]-1-oxazol-2-yl-butan-1-one], the IC50 in experiment [1] was determined as 2000 nM; in experiment [2] (setting [3]), 180 nM.

Consider `CC(C)c1ccc(CN2CCC(CCCC(=O)c3ncco3)CC2)cc1` [Example 22, 4-[1-(4-Isopropyl-benzyl)-piperidin-4-yl]-1-oxazol-2-yl-butan-1-one], for which the 50% inhibitory concentration (IC50) in experiment [1] came to 5 nM; in experiment [2] (setting [3]) it was 3 nM.

With `Cc1ccccc1CN1CCC(CCCC(=O)c2ncco2)CC1` [Example 80, 4-[1-(2-Methyl-benzyl)-piperidin-4-yl]-1-oxazol-2-yl-butan-1-one], the IC50 in experiment [1] was 2000 nM; in experiment [2] (setting [3]) it was 1200 nM.

As to `O=C(CCCC1CCN(C(=O)Cc2ccc(Cl)cc2)CC1)c1ncco1` [Example 40, 4-{1-[2-(4-Chloro-phenyl)-acetyl]-piperidin-4-yl}1-oxazol-2-yl-butan-1-one], the IC50 in experiment [1] came to 75 nM; in experiment [2] (setting [3]), 43 nM.

With `COc1cccc(CN2CCC(CCCC(=O)c3ncco3)CC2)c1` [Example 17, 4-[1-(3-Methoxy-benzyl)-piperidin-4-yl]-1-oxazol-2-yl-butan-1-one], the IC50 in experiment [1] came out at 308 nM; in experiment [2] (setting [3]), 36 nM.

With `CCCS(=O)(=O)N1CCC(CCCC(=O)c2ncco2)CC1` [Example 57, 1-Oxazol-2-yl-4-[1-(propane-1-sulfonyl)-piperidin-4-yl]-butan-1-one], the concentration for half-maximal inhibition (IC50) in experiment [1] turned out to be 1600 nM; in experiment [2] (setting [3]) it was 120 nM.

For the molecule `CC(C)OC(=O)N1CCC(CCCC(=O)c2ncco2)CC1` [Example 69, 4-(4-Oxazol-2-yl-4-oxo-butyl)-piperidine-1-carboxylic acid isopropyl ester], the IC50 in experiment [1] is 9 nM; in experiment [2] (setting [3]) it was 4 nM.

`O=C(CCCC1CCN(Cc2ccc(-c3ccco3)nc2)CC1)c1ncco1` [Example 109, 4-[1-(6-Furan-2-yl-pyridin-3-ylmethyl)-piperidin-4-yl]-1-oxazol-2-yl-butan-1-one]: the IC50 is 528 nM in experiment [1] and 55 nM in experiment [2] (setting [3]).

`CC(C)S(=O)(=O)N1CCC(CCCC(=O)c2ncco2)CC1` [Example 56, 1-Oxazol-2-yl-4-[1-(propane-2-sulfonyl)-piperidin-4-yl]-butan-1-one]: the IC50 was found to be 3350 nM in experiment [1] and 142 nM in experiment [2].

Turning to `O=C(CCCC1CCN(C(=O)CC2CCCCC2)CC1)c1ncco1` [Example 49, 4-[1-(2-Cyclohexyl-acetyl)-piperidin-4-yl]-1-oxazol-2-yl-butan-1-one], the IC50 in experiment [1] is 350 nM; in experiment [2] (setting [3]), 100 nM.

As for `O=C(CCCC1CCN(C(=O)c2ccccc2)CC1)c1ncco1` [Example 28, 4-(1-Benzoyl-piperidin-4-yl)-1-oxazol-2-yl-butan-1-one], the figures for the concentration for half-maximal inhibition (IC50) in experiment [1] and in experiment [2] (setting [3]) were 563 nM and 67 nM, respectively.

Take `CC(C)(C)CC(=O)N1CCC(CCCC(=O)c2ncco2)CC1` [Example 25, 3,3-Dimethyl-1-[4-(4-oxazol-2-yl-4-oxo-butyl)-piperidin-1-yl]-butan-1-one]: the IC50 in experiment [1] was 320 nM; in experiment [2] (setting [3]) it was 90 nM.

For the molecule `COc1cccc(-c2ccc(CN3CCC(CCCC(=O)c4ncco4)CC3)cn2)c1` [Example 104, 4-{1-[6-(3-Methoxy-phenyl)-pyridin-3-ylmethyl]-piperidin-4-yl}-1-oxazol-2-yl-butan-1-one], the values for the concentration for half-maximal inhibition (IC50) in experiment [1] and in experiment [2] (setting [3]) were 48 nM and 4 nM, respectively.

For the molecule `O=C(CCCC1CCN(C(=O)C2CCCCC2)CC1)c1ncco1` [Example 29, 4-(1-Cyclohexanecarbonyl-piperidin-4-yl)-1-oxazol-2-yl-butan-1-one], the values for the IC50 in experiment [1] and in experiment [2] (setting [3]) were 180 nM and 45 nM, respectively.

With `CN(C)c1ccc(CN2CCC(CCCC(=O)c3ncco3)CC2)cc1` [Example 88, 4-[1-(4-Dimethylamino-benzyl)-piperidin-4-yl]-1-oxazol-2-yl-butan-1-one], the IC50 came out at 3000 nM in experiment [1] and 325 nM in experiment [2] (setting [3]).

Regarding `O=C(CCCC1CCN(Cc2ccc3ccccc3n2)CC1)c1ncco1` [Example 92, 1-Oxazol-2-yl-4-(1-quinolin-2-ylmethyl-piperidin-4-yl)-butan-1-one], the IC50 in experiment [1] was 290 nM; in experiment [2] (setting [3]) it was 60 nM.

With `O=C(CCCC1CCN(Cc2ccnc3ccccc23)CC1)c1ncco1` [Example 93, 1-Oxazol-2-yl-4-(1-quinolin-4-ylmethyl-piperidin-4-yl)-butan-1-one], the results for the IC50 in experiment [1] and in experiment [2] (setting [3]) were 923 nM and 70 nM, respectively.

Broadly, the IC50 is the point on the concentration scale where inhibition reaches its midpoint.

Source of the values: US20090111778A1, “2-Keto-Oxazoles as Modulators of Fatty Acid Amide Hydrolase” (priority 2005, published 2009).
